Patent US11236055B2 (Venenum Biodesign, LLC, priority 2016, dated 2022)

Tests used:
[1] = target: T1, mouse TGR5 receptor (Mus musculus, UniProt Q80SS6); test: Mouse TGR5 cAMP production assay (HTRF, Cisbio cAMP HiRange); assay type: cell-based; settings: HEK293-EBNA cells overexpressing mouse TGR5, HTRF cAMP HiRange; coded A-D
T1 construct: expressed in transfected cells; host or cells: HEK293-EBNA (293 c18, ATCC CRL10852), Hygromycin B selection
T1 sequence (Q80SS6 1-329): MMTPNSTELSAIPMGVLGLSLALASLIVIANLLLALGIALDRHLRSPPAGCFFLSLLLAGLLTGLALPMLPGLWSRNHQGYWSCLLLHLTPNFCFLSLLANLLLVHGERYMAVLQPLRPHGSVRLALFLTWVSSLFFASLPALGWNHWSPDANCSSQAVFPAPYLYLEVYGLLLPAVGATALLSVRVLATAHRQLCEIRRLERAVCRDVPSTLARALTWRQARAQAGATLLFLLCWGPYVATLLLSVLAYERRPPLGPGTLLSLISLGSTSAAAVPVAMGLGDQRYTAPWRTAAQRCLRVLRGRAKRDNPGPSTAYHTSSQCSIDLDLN
Outline: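 cAMP read by HTRF competition after 1 h room-temperature compound exposure of mouse TGR5-overexpressing HEK293-EBNA cells. Cells were suspended in serum-free DMEM containing 500 μM IBMX; compounds ran as 12-point half-log dilutions in duplicate; EC50 derived.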

[2] = target: T2, human TGR5 receptor (Homo sapiens, UniProt Q8TDU6); test: Human TGR5 cAMP production assay; assay type: cell-based; settings: human TGR5, luminescent cAMP assay; coded A-D; read-out: Human TGR5 Lum. cAMP Activity (EC50)
T2 construct: host or cells: CHO-K1 (hTGR5-CHO cells)
T2 sequence (Q8TDU6 1-330): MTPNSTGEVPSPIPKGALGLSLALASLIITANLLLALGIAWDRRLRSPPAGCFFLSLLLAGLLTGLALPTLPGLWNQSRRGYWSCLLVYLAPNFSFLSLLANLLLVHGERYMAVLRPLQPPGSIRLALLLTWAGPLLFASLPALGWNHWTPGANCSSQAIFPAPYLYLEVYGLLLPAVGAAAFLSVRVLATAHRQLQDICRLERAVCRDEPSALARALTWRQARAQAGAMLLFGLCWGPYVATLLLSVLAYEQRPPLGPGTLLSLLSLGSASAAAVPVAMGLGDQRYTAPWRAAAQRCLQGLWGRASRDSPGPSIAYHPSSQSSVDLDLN
Outline: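 CHO-K1 cells stably expressing human TGR5, with IBMX and cAMP antibody, were exposed to half-log serially diluted compound for 1 h at room temperature. cAMP measured by enzyme-fragment complementation luminescence (XS+ kit) after overnight incubation; EC50 values reported.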

Compound	EC50 [1] [µM]	EC50 [2] [µM]
Cc1cnccc1-c1cccc([C@H](C)NS(=O)(=O)c2ccccc2N)c1 [Compound 10AA, (S)-2-amino-N-(1-(3-(3-methylpyridin-4-yl)phenyl)ethyl)benzenesulfonamide]	1 to 30	0.1 to 0.999
CN(C)C(=O)c1cnccc1-c1cccc(C(C)(C)NS(=O)(=O)c2ccccc2C(F)(F)F)c1 [Compound 11, N,N-dimethyl-4-(3-(2-(2-(trifluoromethyl)phenylsulfonamido)propan-2-yl)phenyl)nicotinamide]	1 to 30	1 to 30
Cc1c(Cl)cccc1S(=O)(=O)N[C@@H](C)c1cccc(-n2ccncc2=O)c1 [Compound 12, (S)-3-chloro-2-methyl-N-(1-(3-(2-oxopyrazin-1(2H)-yl)phenyl)ethyl)benzenesulfonamide]	1 to 30	0.1 to 0.999
Cc1c(Cl)cccc1S(=O)(=O)N(CCCC(=O)O)[C@@H](C)c1cccc(-c2ccncc2)c1 [Compound 14AD, (S)-4-(3-chloro-2-methyl-N-(1-(3-(pyridin-4-yl)phenyl)ethyl)phenylsulfonamido)butanoic acid]	0.1 to 0.999	0.1 to 0.999
Cc1nccc(-c2cccc([C@H](C)N(CCCC(=O)O)S(=O)(=O)c3cccc(Cl)c3C)c2)c1C [Compound 14AG, (S)-4-(3-chloro-N-(1-(3-(2,3-dimethylpyridin-4-yl)phenyl)ethyl)-2-methylphenylsulfonamido)butanoic acid]	0.1 to 0.999	0.1 to 0.999
Cc1cnccc1-c1cccc([C@H](C)N(CCCC(=O)O)S(=O)(=O)c2ccccc2C(F)(F)F)c1 [Compound 15, (S)-4-(N-(1-(3-(3-methylpyridin-4-yl)phenyl)ethyl)-2-(trifluoromethyl)phenylsulfonamido)-butanoic acid]	0.1 to 0.999	< 0.1
CCc1cnccc1-c1cccc([C@H](C)N(CCCC(=O)O)S(=O)(=O)c2ccccc2C(F)(F)F)c1 [Compound 15AB, (S)-4-(N-(1-(3-(3-ethylpyridin-4-yl)phenyl)ethyl)-2-(trifluoromethyl)phenylsulfonamido)butanoic acid]	< 0.1	< 0.1
Cc1cnccc1-c1cccc([C@H](CCCC#N)N(CCCC(=O)OC(C)(C)C)S(=O)(=O)c2cccc(Cl)c2C)c1 [Compound 15AC, (S)-tert-butyl 4-(3-chloro-N-(4-cyano-1-(3-(3-methylpyridin-4-yl)phenyl)butyl)-2-methylphenylsulfonamido) butanoate]	1 to 30	0.1 to 0.999
Cc1cnccc1-c1cccc([C@H](CCCC#N)N(CCCC(=O)O)S(=O)(=O)c2cccc(Cl)c2C)c1 [Compound 15AD, (S)-4-(3-chloro-N-(4-cyano-1-(3-(3-methylpyridin-4-yl)phenyl)butyl)-2-methylphenylsulfonamido) butanoic acid]	0.1 to 0.999	0.1 to 0.999
Cc1cnccc1-c1cccc([C@@H](C)N(CCCC(=O)O)S(=O)(=O)c2cccc(Cl)c2C)c1 [Compound 16AA, (R)-4-(3-chloro-2-methyl-N-(1-(3-(3-methylpyridin-4-yl)-phenyl)ethyl)phenylsulfonamido)butanoic acid]	1 to 30	0.1 to 0.999

Further lines, results first:

EC50 [1] [µM]	EC50 [2] [µM]	Compound
< 0.1	< 0.1	CCc1cnccc1-c1cccc([C@H](C)N(CCCC(=O)O)S(=O)(=O)c2cccc(Cl)c2C)c1 [Compound 16AB, (S)-4-(3-chloro-N-(1-(3-(3-ethylpyridin-4-yl)phenyl)ethyl)-2-methylphenyl-sulfonamido)butanoic acid]
0.1 to 0.999	< 0.1	Cc1c(Cl)cccc1S(=O)(=O)N(CCCC(=O)O)C(C)(C)c1cccc(-c2ccncc2CO)c1 [Compound 16AC, 4-(3-chloro-N-(2-(3-(3-(hydroxymethyl)pyridin-4-yl)-phenyl)propan-2-yl)-2-methylphenylsulfonamido)butanoic acid]
0.1 to 0.999	0.1 to 0.999	Cc1cnccc1-c1cccc([C@H](C)N(CCCC(=O)O)S(=O)(=O)c2ccccc2C)c1 [Compound 16AD, (S)-4-(2-methyl-N-(1-(3-(3-methylpyridin-4-yl)phenyl)-ethyl)phenylsulfonamido)butanoic acid]
0.1 to 0.999	< 0.1	Cc1cnccc1-c1cccc([C@H](C)N(CCCCC(=O)O)S(=O)(=O)c2cccc(Cl)c2C)c1 [Compound 16AF, (S)-5-(3-chloro-2-methyl-N-(1-(3-(3-methylpyridin-4-yl)phenyl)ethyl)phenylsulfonamido)pentanoic acid]
< 0.1	< 0.1	CCc1cnccc1-c1cccc([C@H](C)N(CCCCC(=O)O)S(=O)(=O)c2cccc(Cl)c2C)c1 [Compound 16AG, (S)-5-(3-chloro-N-(1-(3-(3-ethylpyridin-4-yl)phenyl)-ethyl)-2-methylphenyl-sulfonamido)pentanoic acid]
1 to 30	1 to 30	Cc1cnsc1-c1cccc([C@H](C)N(CCCC(=O)O)S(=O)(=O)c2cccc(Cl)c2C)c1 [Compound 16AJ, (S)-4-(3-chloro-2-methyl-N-(1-(3-(4-methylisothiazol-5-yl)phenyl)ethyl)phenyl-sulfonamido)butanoic acid]
1 to 30	1 to 30	Cc1cnccc1-c1cccc([C@H](C)N(CCC(=O)O)S(=O)(=O)c2cccc(Cl)c2C)c1 [Compound 16AK, (S)-3-(3-chloro-2-methyl-N-(1-(3-(3-methylpyridin-4-yl)phenyl)ethyl)phenylsulfonamido)propanoic acid]
0.1 to 0.999	0.1 to 0.999	Cc1cnccc1-c1cccc(C2(N(CCCC(=O)O)S(=O)(=O)c3cccc(Cl)c3C)COC2)c1 [Compound 16AL, 4-(3-chloro-2-methyl-N-(3-(3-(3-methylpyridin-4-yl)phenyl)-oxetan-3-yl)phenyl-sulfonamido)butanoic acid]
0.1 to 0.999	0.1 to 0.999	Cc1cnccc1-c1cccc([C@H](C)N(CCOCC(=O)O)S(=O)(=O)c2cccc(Cl)c2C)c1 [Compound 16AM, (S)-2-(2-(3-chloro-2-methyl-N-(1-(3-(3-methylpyridin-4-yl)phenyl)ethyl)phenylsulfonamido)ethoxy)acetic acid]
< 0.1	0.1 to 0.999	Cc1cnccc1-c1cccc([C@H](C)N(CCCC(=O)O)S(=O)(=O)c2cccc(Cl)c2C)c1 [Compound 16]
0.1 to 0.999	1 to 30	Cc1cnccc1-c1cccc([C@H](CC(=O)O)NS(=O)(=O)c2ccccc2C(F)(F)F)c1 [Compound 18, (S)-3-(3-(3-methylpyridin-4-yl)phenyl)-3-(2-(trifluoromethyl)phenylsulfonamido)propanoic acid]
0.1 to 0.999	1 to 30	Cc1cnccc1-c1cccc(C(CCC(=O)O)NS(=O)(=O)c2ccccc2C(F)(F)F)c1 (stereo not shown) [Compound 19, 4-(3-(3-methylpyridin-4-yl)phenyl)-4-(2-(trifluoromethyl)phenylsulfonamido)butanoic acid]
0.1 to 0.999	0.1 to 0.999	Cc1cnccc1-c1cccc([C@H](CCCC(=O)O)NS(=O)(=O)c2ccccc2C(F)(F)F)c1 [Compound 19AA, (S)-5-(3-(3-methylpyridin-4-yl)phenyl)-5-(2-(trifluoromethyl)phenylsulfonamido) pentanoic acid]
